The values below come from paper PMC6627698, “Redesigning Arenicin-1, an Antimicrobial Peptide from the Marine Polychaeta Arenicola marina, by Strand Rearrangement or Branching, Substitution of Specific Residues, and Backbone Linearization or Cyclization” (Marine Drugs, 2019).

SMILES strings stand for the structures. Residues, ends and D or L forms follow the SMILES beside them.

In general, IC50 refers to the concentration needed to halve the response being measured. A higher IC50 goes with weaker potency.

In experiment [1] the test system is set of Gram-negative and Gram-positive bacteria, including drug-resistant clinical isolates. It counts as cell-based. The conditions noted are these: 12 strains; median MICs used; MIC > 16 µM taken as 32 µM.
In experiment [2] the test system is Staphylococcus intermidius. In kind it is cell-based, Staphylococcus intermedius. The conditions noted are these: 18 h. Summed up:
(§1)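 MIC by CLSI broth microdilution in 50% Mueller Hinton broth/50% PBS; mid-log bacteria at about 2 × 10^5 CFU/mL mixed 1:1 with serially diluted peptides. Wells pre-treated with 0.2% BSA to limit peptide binding to plastic.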

In experiment [3] the test system is human erythroleukemia K-562 cells. In kind it is cell-based. Particulars: 24 h. The essentials:
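MTT cytotoxicity in K-562 cells, 10^5 cells/well in serum-free RPMI 1640, exposed to serial peptide dilutions for 24 h at 37 °C, 5% CO2. OD540 read (690 nm background subtracted); IC50 by nonlinear regression of dose–response curves.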

The test system of experiment [4] is E. coli M15. In kind it is cell-based, Escherichia coli. Particulars: M15, 18 h. The essentials: as §1
Experiment [5] relates to E. coli ATCC 25922. In kind it is cell-based, Escherichia coli. Particulars: ATCC 25922, 18 h. Summed up:
as §1

In experiment [6] the test system is Acinetobacter baumanii c.i. It counts as cell-based, Acinetobacter baumannii. The conditions noted are these: 18 h. The essentials: as §1
Experiment [7] has as its system P. aeruginosa c.i. It counts as cell-based, Pseudomonas aeruginosa. Particulars: 18 h. Summed up:
as §1

The subject of experiment [8] is E. coli ML35p outer membrane. As to the kind of experiment: Outer membrane permeabilization assay (nitrocefin hydrolysis). It counts as cell-based, Escherichia coli. Particulars: peptide at 2 × MIC, 10 mM sodium phosphate buffer, 100 mM NaCl, pH 7.4, 37 °C, 486 nm. How it is done: Figure 5 Permeabilizing effect of arenicin-1 variants on E. coli ML35p outer and cytoplasmic membranes.
The E. coli ML35p outer membrane permeability was assessed by monitoring hydrolysis of the chromogenic β-lactamase substrate nitrocefin (3-(2,4-dinitrostyryl)-(6R,7R)-7-(2-thienyl acetamido)ceph-3-em-4-carboxylic acid) (Calbiochem-Novabiochem, San-Diego, CA, USA) by detection of the hydrolysis product at 486 nm. Inner membrane permeability was monitored by measuring the hydrolysis of o-nitrophenyl-β-D-galactoside (ONPG, Sigma, La Jolla, CA, USA) at 420 nm. The E. coli ML35p strain expresses a plasmid-encoded periplasmic β-lactamase; it constitutively expresses cytoplasmic β-galactosidase and lacks lactose permease. E. coli ML35p was maintained on trypticase soy agar plates containing […] of ampicillin per mL. The bacteria used for antimicrobial testing or membrane permeability assays were picked from a single colony, incubated in 50 mL of sterile Trypticase soy broth for 16 h at 37 °C, washed three times with 10 mM sodium phosphate buffer (pH 7.4), adjusted to an optical density at 620 nm of 1 (2.5 × 10^8 CFU/mL), and kept on ice until use. The assays were performed in 96-well microtiter plates that were monitored every minute with a SpectraMax 250 Microplate Spectrophotometer (Molecular Devices, Sunnyvale, CA, USA) using the SOFTmax PRO software supplied by the manufacturer. […]

For experiment [9], the system named is Escherichia coli ML35p. It counts as cell-based. Particulars: broth microdilution, 50% Mueller Hinton broth / 50% PBS, 18 h at 37 °C, median of 3–5 experiments in triplicates. Summed up:
as §1
For orientation: Broth dilution looks for growth in wells or tubes with falling amounts of substance.

For experiment [10], the system named is Listeria monocytogenes EGD. It counts as cell-based. The conditions noted are these: 18 h. The essentials: as §1
The test system of experiment [11] is Pseudomonas aeruginosa ATCC 27853. In kind it is cell-based. Particulars: ATCC 27853, 18 h. Summed up: as §1
For experiment [12], the system named is Staphylococcus aureus 710A. In kind it is cell-based. Particulars: 18 h. Summed up:
as §1

Experiment [13] relates to S. aureus c.i. It counts as cell-based, Staphylococcus aureus. Particulars: 18 h. The essentials:
as §1

Experiment [14] has as its system MRSA ATCC 33591. In kind it is cell-based, Staphylococcus aureus. The conditions noted are these: ATCC 33591, 18 h. Summed up: as §1
The test system of experiment [15] is S. aureus ATCC 25923. It counts as cell-based, Staphylococcus aureus. The conditions noted are these: ATCC 25923, 18 h. Summed up:
as §1

`CC(C)C[C@@H]1NC(=O)[C@H](C(C)C)NC(=O)CNC(=O)[C@H](CCCCN)NC(=O)[C@H](C(C)C)NC(=O)[C@H](CCCCN)NC(=O)[C@H](C(C)C)NC(=O)[C@H](Cc2ccc(O)cc2)NC(=O)[C@H](C)NC(=O)[C@H](Cc2ccc(O)cc2)NC(=O)[C@H](C(C)C)NC(=O)[C@@H](NC(=O)[C@H](Cc2c[nH]c3ccccc23)NC(=O)[C@@H](N)CCCCN)CSSC[C@@H](C(=O)N[C@@H](Cc2c[nH]c3ccccc23)C(=O)O)NC(=O)[C@H](CCCCN)NC(=O)[C@H](CCCCN)NC(=O)[C@H](Cc2ccc(O)cc2)NC(=O)[C@H](CCCCN)NC(=O)[C@H](C(C)C)NC1=O` [AR-K] (HELM PEPTIDE1{K.W.C.V.Y.A.Y.V.K.V.K.G.V.L.V.K.Y.K.K.C.W}$PEPTIDE1,PEPTIDE1,3:R3-20:R3$$$V2.0; N-terminus assumed): the “G-MIC (geometric mean of all determined MICs)” value in [1] is on record as 1.9 µM. The “Minimal Inhibitory Concentrations (MIC)” value in experiment [2] was 4 µM; in experiment [4], 1 µM; in experiment [5], 2 µM; in experiment [6], 1 µM; in experiment [7] it was 2 to 4 µM; in [9], 1 µM. In addition, the “Minimal Inhibitory Concentrations (MIC)” value in experiment [10] was 2 µM; in experiment [11], 1 to 2 µM; in experiment [12], 2 µM; in experiment [13], 4 µM; in experiment [14], 2 µM; in experiment [15], 2 µM. In experiment [3], this compound had an IC50 of 7.7 µM. In addition, the “Capacity to permeabilize the outer membrane with respect to arenicin-1” value in experiment [8] is on record as “improved capacity to permeabilize the outer membrane”.
